Data taken from US20110214196A1, “DEVELOPMENT OF HERBICIDE-RESISTANT GRASS SPECIES” (University of Georgia Research Foundation, priority 2008, published 2011).

Assays:
Experiment in all cases: Whole plant greenhouse dose-response, Segment herbicide (Example 8)
Format in all cases: in vivo, seashore paspalum (Paspalum vaginatum)
[1] = tested on: sethoxydim-resistant Line A
Procedure: (§1) Sethoxydim-resistant plants regenerated from a sethoxydim-resistant cell line, Line A, were tested for resistance at the whole plant level in a dose-response experiment conducted in a greenhouse. In this experiment, Line A was compared to two herbicide-susceptible controls; the original parent line, Mauna Kea (PT); and a Mauna Kea line regenerated from tissue culture (TTC). Plants were transplanted to Cone-tainers™ measuring 4×14 cm and tapering to 1 cm (Stuewe and Sons Inc., Corvallis, Oreg.) containing a 1:1 mix of Fafard® 3B mix and sand and placed on benches under sodium lights in a greenhouse with a 16 hour photoperiod maintained at 27/32° C. day/night for two weeks prior to treatment applications. Each of the three genotypes, Line A, PT and TC were treated with 0, 50, 100, 200, 400, 800, 1600, and 3200 g ai ha^−1 rates of sethoxydim using Segment™ herbicide (BASF Corp., Florham Park, N.J.). All herbicide rates were applied at a spray volume of 1871 ha^−1 in an experimental spray chamber, and after drying, returned to the greenhouse bench and maintained under the conditions described above. Visual estimates of crop injury were recorded at 7, 14, 21, and 28 days after treatment (DAT) using a scale of 0 to 100, where 0 equals no injury and 100 equals complete death. At 42 days after treatment, the above ground portion of all plants was harvested, dried for 48 hours at a temperature of 50° C., and weighed to determine plant dry weight. Treatments were arranged in a randomized complete block design. Only two replications of TCC were possible due to limited plant materials; otherwise four replications were used for the other two genotypes (PT and Line A). Data were first analyzed using a two-way analysis of variance and subsequently analyzed within herbicide rate. Differences among genotype means at each herbicide rate were determined using Fisher's Least Significant Difference (LSD).

[2] = tested on: Mauna Kea line regenerated from tissue culture (TC)
Procedure: as §1

[3] = tested on: original parent line, Mauna Kea (PT)
Procedure: as §1

[4] = at rates equal to or greater than 800 g ai ha^−1
[5] = at rates of 200 g ai ha^−1, scale of 0 to 100

For `CCC/C(=N\OCC)C1=C(O)CC(CC(C)SCC)CC1=O` (centres unmarked) [sethoxydim, 2-[1-(ethoxyimino)-butyl]-5-[2-(ethylthio)propyl]-3-hydroxy-2-cylohexen-1-one], the LD50 [1] was over 3200 g ai ha^1, the “Plant Injury” value ([1]; 50 g a.i. ha^−1, 7 DAT) was 2.9a % and the “Plant Injury” value ([1]; 50 g a.i. ha^−1, 14 DAT) was 0.0b %. The “Plant Injury” value ([1]; 50 g a.i. ha^−1, 21 DAT) was 1.2a %, the “Plant Injury” value ([1]; 50 g a.i. ha^−1, 28 DAT) was 0.0a % and the “Dry Weight” value ([1]; 50 g a.i. ha^−1, 42 DAT) was 1.7a grams. For the same compound, the “Plant Injury” value ([1]; 100 g a.i. ha^−1, 7 DAT) was 0.8a %, the “Plant Injury” value ([1]; 100 g a.i. ha^−1, 14 DAT) was 1.2a % and the “Plant Injury” value ([1]; 100 g a.i. ha^−1, 21 DAT) was 3.8a %. The “Plant Injury” value ([1]; 100 g a.i. ha^−1, 28 DAT) was 2.5a %, the “Dry Weight” value ([1]; 100 g a.i. ha^−1, 42 DAT) was 2.0a grams and the “Plant Injury” value ([1]; 200 g a.i. ha^−1, 7 DAT) was 1.7a %. The “Plant Injury” value ([1]; 200 g a.i. ha^−1, 14 DAT) was 0.0a %, the “Plant Injury” value ([1]; 200 g a.i. ha^−1, 21 DAT) was 0.0a % and the “Plant Injury” value ([1]; 200 g a.i. ha^−1, 28 DAT) was 0.0a %. The “Dry Weight” value ([1]; 200 g a.i. ha^−1, 42 DAT) was 1.9a grams, the “Plant Injury” value ([1]; 400 g a.i. ha^−1, 7 DAT) was 3.8a % and the “Plant Injury” value ([1]; 400 g a.i. ha^−1, 14 DAT) was 0.0a %. For the same compound, the “Plant Injury” value ([1]; 400 g a.i. ha^−1, 21 DAT) was 2.5a %, the “Plant Injury” value ([1]; 400 g a.i. ha^−1, 28 DAT) was 0.0a % and the “Dry Weight” value ([1]; 400 g a.i. ha^−1, 42 DAT) was 2.0a grams. For the same compound, the “Plant Injury” value ([1]; 800 g a.i. ha^−1, 7 DAT) was 1.2a %, the “Plant Injury” value ([1]; 800 g a.i. ha^−1, 14 DAT) was 1.2a % and the “Plant Injury” value ([1]; 800 g a.i. ha^−1, 21 DAT) was 3.8a %. For the same compound, the “Plant Injury” value ([1]; 800 g a.i. ha^−1, 28 DAT) was 1.2a %, the “Dry Weight” value ([1]; 800 g a.i. ha^−1, 42 DAT) was 2.0a grams and the “Plant Injury” value ([1]; 1600 g a.i. ha^−1, 7 DAT) was 4.3a %. The “Plant Injury” value ([1]; 1600 g a.i. ha^−1, 14 DAT) was 0.0a %, the “Plant Injury” value ([1]; 1600 g a.i. ha^−1, 21 DAT) was 3.8a % and the “Plant Injury” value ([1]; 1600 g a.i. ha^−1, 28 DAT) was 1.2a %. The “Dry Weight” value ([1]; 1600 g a.i. ha^−1, 42 DAT) was 1.5a grams, the “Plant Injury” value ([1]; 3200 g a.i. ha^−1, 7 DAT) was 8.3a % and the “Plant Injury” value ([1]; 3200 g a.i. ha^−1, 14 DAT) was 7.5a %. The “Plant Injury” value ([1]; 3200 g a.i. ha^−1, 21 DAT) was 5.5a %, the “Plant Injury” value ([1]; 3200 g a.i. ha^−1, 28 DAT) was 4.2b % and the “Dry Weight” value ([1]; 3200 g a.i. ha^−1, 42 DAT) was 1.6a grams. For the same compound, the “maximum injury score observed” value ([1]; at 3200 g ai ha^−1) was 7.5%, the LD50 [2] was 276 g ai ha^1 and the “Plant Injury” value ([2]; 50 g a.i. ha^−1, 7 DAT) was 4.5a %. For the same compound, the “Plant Injury” value ([2]; 50 g a.i. ha^−1, 14 DAT) was 12.5ab %, the “Plant Injury” value ([2]; 50 g a.i. ha^−1, 21 DAT) was 2.5a % and the “Plant Injury” value ([2]; 50 g a.i. ha^−1, 28 DAT) was 0.0a %. For the same compound, the “Dry Weight” value ([2]; 50 g a.i. ha^−1, 42 DAT) was 2.2a grams, the “Plant Injury” value ([2]; 100 g a.i. ha^−1, 7 DAT) was 18.3b % and the “Plant Injury” value ([2]; 100 g a.i. ha^−1, 14 DAT) was 25.0b %. The “Plant Injury” value ([2]; 100 g a.i. ha^−1, 21 DAT) was 20.0a %, the “Plant Injury” value ([2]; 100 g a.i. ha^−1, 28 DAT) was 7.5a % and the “Dry Weight” value ([2]; 100 g a.i. ha^−1, 42 DAT) was 1.6ab grams. The “Plant Injury” value ([2]; 200 g a.i. ha^−1, 7 DAT) was 16.7b %, the “Plant Injury” value ([2]; 200 g a.i. ha^−1, 14 DAT) was 30.0b % and the “Plant Injury” value ([2]; 200 g a.i. ha^−1, 21 DAT) was 40.0b %. The “Plant Injury” value ([2]; 200 g a.i. ha^−1, 28 DAT) was 32.5b %, the “Dry Weight” value ([2]; 200 g a.i. ha^−1, 42 DAT) was 0.4b grams and the “Plant Injury” value ([2]; 400 g a.i. ha^−1, 7 DAT) was 30.8b %. The “Plant Injury” value ([2]; 400 g a.i. ha^−1, 14 DAT) was 82.5b %, the “Plant Injury” value ([2]; 400 g a.i. ha^−1, 21 DAT) was 80.0b % and the “Plant Injury” value ([2]; 400 g a.i. ha^−1, 28 DAT) was 82.5b %. For the same compound, the “Dry Weight” value ([2]; 400 g a.i. ha^−1, 42 DAT) was 0.1b grams, the “Plant Injury” value ([2]; 800 g a.i. ha^−1, 7 DAT) was 60.0c % and the “Plant Injury” value ([2]; 800 g a.i. ha^−1, 14 DAT) was 87.5b %. The “Plant Injury” value ([2]; 800 g a.i. ha^−1, 21 DAT) was 95.0b %, the “Plant Injury” value ([2]; 800 g a.i. ha^−1, 28 DAT) was 100.0c % and the “Dry Weight” value ([2]; 800 g a.i. ha^−1, 42 DAT) was 0.1b grams. The “Plant Injury” value ([2]; 1600 g a.i. ha^−1, 7 DAT) was 43.3b %, the “Plant Injury” value ([2]; 1600 g a.i. ha^−1, 14 DAT) was 100.0c % and the “Plant Injury” value ([2]; 1600 g a.i. ha^−1, 21 DAT) was 100.0c %. The “Plant Injury” value ([2]; 1600 g a.i. ha^−1, 28 DAT) was 100.0b %, the “Dry Weight” value ([2]; 1600 g a.i. ha^−1, 42 DAT) was 0.1b grams and the “Plant Injury” value ([2]; 3200 g a.i. ha^−1, 7 DAT) was 46.7b %. For the same compound, the “Plant Injury” value ([2]; 3200 g a.i. ha^−1, 14 DAT) was 100.0b %, the “Plant Injury” value ([2]; 3200 g a.i. ha^−1, 21 DAT) was 100.0b % and the “Plant Injury” value ([2]; 3200 g a.i. ha^−1, 28 DAT) was 100.0b %. The “Dry Weight” value ([2]; 3200 g a.i. ha^−1, 42 DAT) was 0.1b grams, the injury score [2, 4] was at least 80% and the injury score [2, 5] was at least 30. The LD50 [3] was 189 g ai ha^1, the “Plant Injury” value ([3]; 50 g a.i. ha^−1, 7 DAT) was 5.2a % and the “Plant Injury” value ([3]; 50 g a.i. ha^−1, 14 DAT) was 6.2b %. For the same compound, the “Plant Injury” value ([3]; 50 g a.i. ha^−1, 21 DAT) was 5.0a %, the “Plant Injury” value ([3]; 50 g a.i. ha^−1, 28 DAT) was 1.2a % and the “Dry Weight” value ([3]; 50 g a.i. ha^−1, 42 DAT) was 1.6a grams. The “Plant Injury” value ([3]; 100 g a.i. ha^−1, 7 DAT) was 7.9b %, the “Plant Injury” value ([3]; 100 g a.i. ha^−1, 14 DAT) was 22.5b % and the “Plant Injury” value ([3]; 100 g a.i. ha^−1, 21 DAT) was 13.8a %. For the same compound, the “Plant Injury” value ([3]; 100 g a.i. ha^−1, 28 DAT) was 6.2a %, the “Dry Weight” value ([3]; 100 g a.i. ha^−1, 42 DAT) was 1.3b grams and the “Plant Injury” value ([3]; 200 g a.i. ha^−1, 7 DAT) was 20.8b %. The “Plant Injury” value ([3]; 200 g a.i. ha^−1, 14 DAT) was 55.0b %, the “Plant Injury” value ([3]; 200 g a.i. ha^−1, 21 DAT) was 52.5b % and the “Plant Injury” value ([3]; 200 g a.i. ha^−1, 28 DAT) was 43.8b %. The “Dry Weight” value ([3]; 200 g a.i. ha^−1, 42 DAT) was 0.8b grams, the “Plant Injury” value ([3]; 400 g a.i. ha^−1, 7 DAT) was 30.8b % and the “Plant Injury” value ([3]; 400 g a.i. ha^−1, 14 DAT) was 67.5b %. For the same compound, the “Plant Injury” value ([3]; 400 g a.i. ha^−1, 21 DAT) was 67.5b %, the “Plant Injury” value ([3]; 400 g a.i. ha^−1, 28 DAT) was 72.5b % and the “Dry Weight” value ([3]; 400 g a.i. ha^−1, 42 DAT) was 0.2b grams. For the same compound, the “Plant Injury” value ([3]; 800 g a.i. ha^−1, 7 DAT) was 35.0b %, the “Plant Injury” value ([3]; 800 g a.i. ha^−1, 14 DAT) was 85.0b % and the “Plant Injury” value ([3]; 800 g a.i. ha^−1, 21 DAT) was 85.0b %. For the same compound, the “Plant Injury” value ([3]; 800 g a.i. ha^−1, 28 DAT) was 88.8b %, the “Dry Weight” value ([3]; 800 g a.i. ha^−1, 42 DAT) was 0.3b grams and the “Plant Injury” value ([3]; 1600 g a.i. ha^−1, 7 DAT) was 40.8b %. For the same compound, the “Plant Injury” value ([3]; 1600 g a.i. ha^−1, 14 DAT) was 90.0b %, the “Plant Injury” value ([3]; 1600 g a.i. ha^−1, 21 DAT) was 92.5b % and the “Plant Injury” value ([3]; 1600 g a.i. ha^−1, 28 DAT) was 92.5b %. For the same compound, the “Dry Weight” value ([3]; 1600 g a.i. ha^−1, 42 DAT) was 0.2b grams, the “Plant Injury” value ([3]; 3200 g a.i. ha^−1, 7 DAT) was 37.9b % and the “Plant Injury” value ([3]; 3200 g a.i. ha^−1, 14 DAT) was 100.0b %. The “Plant Injury” value ([3]; 3200 g a.i. ha^−1, 21 DAT) was 100.0b %, the “Plant Injury” value ([3]; 3200 g a.i. ha^−1, 28 DAT) was 100.0b % and the “Dry Weight” value ([3]; 3200 g a.i. ha^−1, 42 DAT) was 0.1b grams. For the same compound, the injury score [3, 4] was at least 80% and the injury score [3, 5] was at least 30.
